Like-named read-outs stand apart in the source and are kept apart here.
System: Spodoptera frugiperda
Assay: Indoor toxicity test, immersion method, larvae mortality after 24 h
Type: in vivo
Conditions: single or mixed in different ratios, 3-day-old larvae, 25° C., read-out: LC50 (95% confidence limit)
From the text: Pesticide for test: TC of tea saponin; TC of chlorantraniliprole; TC of tolfenpyrad;
Pest for test: Spodoptera frugiperda (2-3-day-old);
Test method: immersion method: calculating the dosage of the TC according to the active ingredients, preparing the TC into a mother solution, adding clear water to dilute the mother solution to 5-7 gradient concentrations, taking clear water treatment as a control, and setting 3 repetitions for each treatment; selecting 20 larvae with basically the same growth state, putting the larvae into an experiment barrel containing pesticide liquid, covering a gauze (to prevent escape), placing in a 25° C. incubator, investing the death situations after 24 h, recording the number of the dead larvae, and processing data by DPS statistical software.

Row | SMILES | LC50 (chlorantraniliprole (A) and tea saponin (B)) | LC50 (tolfenpyrad (A) and tea saponin (B))
1 | CNC(=O)c1cc(Cl)cc(C)c1NC(=O)c1cc(Br)nn1-c1ncccc1Cl [Chlorantraniliprole (A), Chlorantraniliprole] | 0.283 µg/mL | 
2 | CCc1nn(C)c(C(=O)NCc2ccc(Oc3ccc(C)cc3)cc2)c1Cl [Tolfenpyrad (A), Tolfenpyrad] |  | 0.563 µg/mL
